The record followed here is patent US9682999B2, “Benzofuran compounds for the treatment of hepatitis C virus infections” (Glaxo Group Limited, priority 2011, dated 2017).

Each structure is given as a SMILES string. A value given as a limit tells only on which side of the number the result lay.

The nature of series [1]: In vivo pharmacokinetic study, mouse. Particulars: for clearance / Vd / bioavailability: blood; for clearance / Vd: intravenous; for Vd: read-out: Vss; for bioavailability: oral. The protocol: (§1) In vivo pharmacokinetic studies were conducted in mouse, rat, dog, or cynomolgus monkey to determine clearance, oral exposure and bioavailability (% F). Solution doses of the compounds were administered intravenously through catheters or orally by gavage. Blood samples were collected at the following time points (n=2 or 3/route/species): 0.083 (IV only), 0.167 (IV only), 0.25, 0.5, 1, 2, 4, 6, 8, 12, and 24 h. Non-compartmental pharmacokinetic parameters were determined using Phoenix Winnonlin 6.1 (Pharsight, Mountain View, Calif.). Bioavailability of the oral formulation of each compound were calculated as the ratio of the oral dose normalized AUCinf to the intravenous dose normalized AUCinf. Results are expressed in Table 2.

Series [2] in a line: In vivo pharmacokinetic study, rat. Particulars: for DNAUC / T 1/2: Rat; for clearance / Vd / bioavailability: rat, blood; for clearance / Vd: intravenous; for Vd: read-out: Vss; for bioavailability: oral. The procedure: as §1
Series [3] in a line: In vivo pharmacokinetic study, dog. Particulars: for DNAUC / T 1/2: Dog; for clearance / Vd / bioavailability: dog, blood; for clearance / Vd: intravenous; for Vd: read-out: Vss; for bioavailability: oral. The protocol:
as §1

Series [4] is described as follows: In vivo pharmacokinetic study, monkey. Further details: species or system cynomolgus monkey. The settings on record: for clearance / Vd / bioavailability: cynomolgus monkey; for clearance / Vd: intravenous; for Vd: read-out: Vss; for bioavailability: oral. The procedure:
as §1

Series [5] can be described thus: Hepatocyte incubations, metabolic stability. It is filed as in vitro ADME. Further details: dose or concentration left out as unconfirmed. The settings on record: cryopreserved human hepatocytes, 0.25×10^6 cells, up to 120 min, 37 C. The procedure: Hepatocyte incubations were conducted using cryopreserved hepatocytes purchased from CellzDirect (Durham, N.C.). Cryopreserved hepatocytes were removed from liquid nitrogen and thawed according to XenoTech's guidelines listed in “XenoTech Protocol for Thawing Cryopreserved Hepatocytes” using Hepatocyte Isolation Kit K2000 (Dec. 13, 2004). Hepatocytes were diluted to 1 million cells in 1 mL of Williams E media containing 25 mM HEPES buffer and 2 mM Glutamax.
Hepatocyte incubations were carried out in 96-well plates on an Eppendorf shaker at 350 rpm at 37 C. Reaction mixtures consisted of 0.25×10^6 cells and […] test compound (to maintain a 0.05% final DMSO concentration) in a final volume of 0.5 mL. An initial time-point (t0) was collected and subsequent aliquots were collected at 15, 30, 60, 90, and 120 min. Reactions were terminated by transferring […] of the incubation mixture into a 96-well plate containing […] of an organic mixture [acetonitrile and methanol (80:20)] at 4° C. Precipitated protein was removed by centrifugation and the resultant supernatant was transferred to a new 96-well polypropylene plate for LC/MS/MS analysis. Drug-free matrix control and 2 QC standards (phenacetin and propranolol) were included in each experiment and treated in the same manner as test compound.
Metabolic stability expressed as the percentage of parent compound remaining was calculated from the peak area ratio of compound remaining after incubation (tx) compared to the time zero (t0) incubation.
The half-life (t1/2) was calculated using the following equation: […]
Where K is the slope of the ln % remaining vs. time regression. Half-life values were only reported when at least 15% loss of parent compound was observed.

Series [6] has as its system sub-genomic HCV NS3-NS5B replicon genotype 1a (Huh-7 cells). In words: Replicon luciferase cell based assay, genotype 1a. The settings on record: Hepatitis C virus; Huh-7 genotype 1a luciferase replicon, 48 hours; read-out: EC50 GT 1a. The procedure:
(§2) 150 μL of a 1 mM stock solution in DMSO of each test compound was transferred into in the first column of a 96 well, V-bottom microplate, to give 200 times the top concentration of the required dilution series. Aliquots of 50 μL were added to each well of the remaining rows containing 100 μL of DMSO giving a 1:3 dilution series over ten points. Columns 11 and 12 contained DMSO only for the positive and negative control, respectively. 10 μL of each well were transferred into 90 μL of DMEM medium (Invitrogen #41965-039) supplemented with 5% v/v foetal calf serum, 1% v/v non-essential amino acids solution, 100 units/ml penicillin, 100 μg/ml streptomycin and 2 mM L-glutamine to give 20 times the top concentration of the required dilution series.
(§3) Suspensions were prepared from cultures of Huh-7 cells stably transfected with sub-genomic HCV NS3-NS5B replicons of either genotype 1b (the ET subline described by Pietschmann, T., Lohmann, V., Kaul, A., Krieger, N., Rinck, G., Rutter, G., Strand, D. & Bartenschlager, R., Journal of Virology, 2002, 76, 4008-4021), genotype 1a (subline 1.19 constructed in-house from H77 SG-Neo containing adaptive mutations P1496L and S2204I as described by Blight, K. J., McKeating, J. A., Marcotrigiano, J., and Rice, C. M. Journal of Virology, 2003, 77, 3180-3190), genotype 1b C316N (constructed in-house by site directed mutagenesis of the NS5B gene of the ET subline), or genotype 1a C316Y (constructed in-house by site directed mutagenesis of the NS5B gene of H77 SG-Neo containing adaptive mutations P1496L and S2204I as described by Blight, K. J., McKeating, J. A., Marcotrigiano, J., and Rice, C. M. Journal of Virology, 2003, 77, 3180-3190) linked to a firefly luciferase reporter gene. Monolayers nearing confluency were stripped from growth flasks with versene-trypsin solution and the cells re-suspended in assay medium comprising DMEM. 95 μL of suspension containing either 15,000 cells (genotype 1b luciferase replicon) or 20,000 cells (genotype 1a luciferase replicon) were added to all wells of a 96 well plate (Perkin Elmer, #6005686), except medium controls in column 12 of the assay plate. The cell suspension was dosed with 5 μL of compound solution and the plate was incubated for 48 hours at 37° C. in a 5% CO2 atmosphere.
(§4) For toxicity the cells in one plate were treated with Cell Titer Glo (Promega, #G7573). A solution of Cell Titer Glo was prepared according to the manufacturer's instructions, and 100 μL added to each well. The plate was then read for luminescence on an Envision. For potency a solution of Steady Glo (Promega, #E2550) was prepared according to the manufacturer's instructions and 100 μL added to each well. After a twenty minute incubation the plate was then read for luminescence on an Envision.
(§5) Potency: The luminescence values from all compound-free wells containing cells were averaged to obtain a positive control value. The mean luminescence value from the compound-free wells that had received no cells was used to provide the negative (background) control value. The readings from the wells at each compound concentration were taken and after the subtraction of the mean background from all values, were expressed as a percentage of the positive control signal. The quantifiable and specific reduction of luciferase signal in the presence of a drug is a direct measure of replicon inhibition. BioAssay Enterprise (CamebridgeSoft) with the XC50 module for curve fitting was used to plot the curve of percentage inhibition against compound concentration and derive the 50% inhibitory concentration (EC50) for the compound. EC50 is the effective concentration, that is, the concentration of compound where 50% maximal effect is observed. The EC50 values of two identical plates were averaged. The results are presented in Table 1 as EC50 for genotypes (GT) 1a, 1b, 1b 316N and 1a 316Y.
On the technique in general: A replicon is a self-replicating genome or part of one, used to study replication in cells.

Series [7] deals with sub-genomic HCV NS3-NS5B replicon genotype 1b (Huh-7 cells). Description: Replicon luciferase cell based assay, genotype 1b. The settings on record: Hepatitis C virus; Huh-7 genotype 1b luciferase replicon, 48 hours; read-out: EC50 GT1b. The protocol:
as §2, §3, §4, §5

Series [8] has as its system sub-genomic HCV NS3-NS5B replicon genotype 1b C316N (Huh-7 cells). In words: Replicon luciferase cell based assay, genotype 1b C316N. Particulars: Hepatitis C virus, Huh-7, 48 h, read-out: EC50 1b 316N. The procedure:
as §2, §3, §4, §5

The test system of series [9] is sub-genomic HCV NS3-NS5B replicon genotype 1a C316Y (Huh-7 cells). In words: Replicon luciferase cell based assay, genotype 1a C316Y. Particulars: Hepatitis C virus, Huh-7, 48 h, read-out: EC50 1a 316Y. The procedure: as §2, §3, §4, §5

The term clearance denotes the rate of elimination divided by the concentration. In general, bioavailability refers to dose-corrected exposure relative to a reference, in per cent. A word on the half-life: it is the time in which the quantity being followed falls by half. Consider `CNC(=O)c1c(-c2ccc(F)cc2)oc2cc(N(Cc3cc(F)c4c(c3)COB4O)S(C)(=O)=O)c(C3CC3)cc12` [A], for which, in series [1] (Mouse (avg)), the DNAUC is 9344 ng·h/mL/mg/kg, the “T 1/2” value was found to be 4.3 H, the clearance is 0.9 mL/min/kg and the Vd was 0.3 L/kg. This compound also showed a bioavailability in series [1] (Mouse (avg)) of 51%. In series [2], the DNAUC came out at 541 ng·h/mL/mg/kg, the “T 1/2” value is given as 1.7 H, the clearance was determined as 14.5 mL/min/kg and the Vd amounted to 1 L/kg. In series [2], this compound gave a bioavailability of 47%. Also, in series [3], the DNAUC amounted to 1074 ng·h/mL/mg/kg, the “T 1/2” value amounted to 5.1 H, the clearance came out at 12.4 mL/min/kg and the Vd was determined as 3.5 L/kg. In series [3], the bioavailability was 71%. Besides, in [4] (Monkey), the DNAUC is 33 ng·h/mL/mg/kg and the “T 1/2” value worked out at 2.1 H. Moreover, in series [4] (blood), the clearance is 70.1 mL/min/kg, the Vd stood at 6.3 L/kg and the bioavailability was 13%. For the same compound, the half-life in series [5] is above 6 h.

Consider `CNC(=O)c1c(-c2ccc(F)cc2)oc2cc(N(Cc3ccc(B(O)O)c(Cl)c3)S(C)(=O)=O)c(C3CC3)cc12` [B], for which, in series [2], the DNAUC came out at 122 ng·h/mL/mg/kg, the “T 1/2” value came out at 1.1 H, the clearance stood at 33.1 mL/min/kg and the Vd was 2.5 L/kg. In addition, in series [2], the bioavailability was 23%. This compound came in with a half-life in series [5] of 0.75 h.

Regarding `CNC(=O)c1c(-c2ccc(F)cc2)oc2cc(N(Cc3ccc(B(O)O)c(F)c3)S(C)(=O)=O)c(C3CC3)cc12` [D], in series [1] (Mouse (avg)), the DNAUC was 4108 ng·h/mL/mg/kg, the “T 1/2” value was 5 H, the clearance was found to be 1.4 mL/min/kg and the Vd was 0.6 L/kg. Further, the bioavailability in series [1] (Mouse (avg)) turned out to be 37%. In addition, in series [2], the DNAUC was 403 ng·h/mL/mg/kg, the “T 1/2” value amounted to 2.2 H, the clearance was 18.6 mL/min/kg and the Vd is 0.8 L/kg. In series [2], this compound registered a bioavailability of 45%. In addition, in series [3], the DNAUC was found to be 1147 ng·h/mL/mg/kg, the “T 1/2” value is 4.5 H, the clearance turned out to be 10.8 mL/min/kg and the Vd was 3.6 L/kg. This compound gave a bioavailability in series [3] of 70%. Further, in series [4] (Monkey (plasma)), the DNAUC stood at 101 ng·h/mL/mg/kg, the “T 1/2” value stood at 1.1 H, the clearance is 48.4 mL/min/kg and the Vd was 1.8 L/kg. Also, the bioavailability in series [4] (Monkey (plasma)) was 28%. Besides, in [5], the half-life was 1.03 h.

What is called EC50 is the concentration that produces a half-maximal response. As to `CNC(=O)c1c(-c2ccc(F)cc2)oc2cc(N(c3ccc(B(O)O)c(Cl)c3)S(C)(=O)=O)c(C3CC3)cc12` [Example 1, (2-Chloro-4-(N-(5-cyclopropyl-2-(4-fluorophenyl)-3-(methylcarbamoyl)benzofuran-6-yl)methylsulfonamido)phenyl)boronic acid], the EC50 in series [6], in [7], in [8] and in series [9] was 1 to 10 nM in each case. In addition, the DNAUC turned out to be 6688 ng·h/mL/mg/kg in series [1] (Mouse), 567 ng·h/mL/mg/kg in series [2], 6438 ng·h/mL/mg/kg in [3] and 2953 ng·h/mL/mg/kg in [4] (Monkey). The “T 1/2” value in [1] (Mouse) is 5.5 H; in series [2], 2.9 H; in series [3], 8.7 H; in [4] (Monkey), 3.7 H. Also, the clearance in series [1] (mouse) is 0.9 mL/min/kg; in series [2], 7.5 mL/min/kg; in [3], 2.3 mL/min/kg; in series [4] (blood), 2.2 mL/min/kg. The Vd in [1] (mouse) is 0.4 L/kg; in series [2], 1.3 L/kg; in [3], 1.6 L/kg; in [4] (blood), 0.5 L/kg. Besides, the bioavailability in series [1] (mouse) worked out at 37%; in [2], 23%; in series [3], 83%; in series [4] (blood), 51%. In addition, the half-life in [5] is above 6 h.
